Patent US20120165319A1, “INHIBITORS OF INTERLEUKIN-1 BETA CONVERTING ENZYME” (VERTEX PHARMACEUTICALS INCORPORATED, priority 1995, published 2012)
Blank lines part the entries; values can stand above or below the compound they belong to.

Key:
ICE = target: T1, ICE (Homo sapiens, UniProt P29466); assay: Enzyme assay with fluorescent substrate (Acetyl-Tyr-Val-Ala-Asp-AMC); Ki and second order rate constants kinact; assay type: biochemical; details: for kinact (ICE): second-order rate constant for inactivation, irreversible inhibitors (Table 2)
T1 sequence (P29466 120-297 limits assumed): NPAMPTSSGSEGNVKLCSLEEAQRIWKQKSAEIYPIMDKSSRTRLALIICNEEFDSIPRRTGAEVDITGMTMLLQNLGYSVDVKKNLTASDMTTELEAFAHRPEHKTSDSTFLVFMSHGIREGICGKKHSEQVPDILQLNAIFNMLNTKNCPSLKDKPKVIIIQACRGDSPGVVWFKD
T1 sequence (P29466 317-404 limits assumed): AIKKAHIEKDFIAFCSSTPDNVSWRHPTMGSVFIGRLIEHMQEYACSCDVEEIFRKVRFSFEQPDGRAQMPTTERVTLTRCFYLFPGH
Procedure: 2. Enzyme Assay with Fluorescent Substrate
This assay is run essentially according to Thornberry et al. (Nature 356: 768-774 (1992)), using substrate 17 referenced in that article. The substrate is: Acetyl-Tyr-Val-Ala-Asp-amino-4-methylcoumarin (AMC). The following components are mixed:
The assay is run in a 96 well microtiter plate. Buffer and ICE are added to the wells. The components are left to incubate at 37° C. for 15 minutes in a temperature-controlled wellplate. After the 15 minute incubation, the reaction is started by adding substrate directly to the wells and the reaction is monitored @37° C. for 30 minutes by following the release of the AMC fluorophore using an excitation wavelength for 380 nm and an emission wavelength of 460 nm. A linear fit of the data for each well is performed and a rate is determined in fluorescence units per second.
For determination of enzyme inhibition constants (Ki) or the mode of inhibition (competitive, uncompetitive or noncompetitive), the rate data determined in the enzyme assays at varying inhibitor concentrations are computer-fit to standard enzyme kinetic equations (see I. H. Segel, Enzyme Kinetics, Wiley-Interscience, 1975).
The determination of second order rate constants for irreversible inhibitors was performed by fitting the fluorescence vs time data to the progress equations of Morrison. Morrison, J. F., Mol. Cell. Biophys., 2, pp. 347-368 (1985). Thornberry et al. have published a description of these methods for measurement of rate constants of irreversible inhibitors of ICE. Thornberry, N. A., et al. Biochemistry, 33, pp. 3923-3940 (1994). For compounds where no prior complex formation can be observed kinetically, the second order rate constants (kinact) are derived directly from the slope of the linear plots of kobs vs. [I]. For compounds where prior complex formation to the enzyme can be detected, the hyperbolic plots of kobs vs. [I] are fit to the equation for saturation kinetics to first generate Ki and k′. The second order rate constant kinact is then given by k′/Ki.
(§1) The selectivity of a panel of reversible inhibitors for ICE homologs is depicted in Table 1. ICE enzyme assays were performed according to Wilson et al (supra 1994) using a YVAD-AMC substrate (Thornberry et al, supra 1992). Assay of TX activity was performed using the ICE substrate under identical conditions to ICE. Assay of CPP32 was performed using a DEVD-AMC substrate (Nicholson et al., supra 1995). In general, there is low selectivity between ICE and TX for a wide range of scaffolds. None of the synthetic ICE compounds tested are effective inhibitors of CPP32.
(§2) Second-order rate constants for inactivation of ICE and ICE homologs with selected irreversible inhibitors are presented below (Table 2). The irreversible compounds studied are broad spectrum inhibitors of ICE and its homologs. Some selectivity, however, is observed with the irreversible compounds comparing inhibition of ICE and CPP32.

CPP32 = target: T2, CPP32 (Homo sapiens, UniProt P42574); assay: Inhibition of ICE homologs: CPP32 (DEVD-AMC substrate); details: for kinact (CPP32): second-order rate constant for inactivation, irreversible inhibitors (Table 2)
T2 sequence (P42574 29-175 limits assumed): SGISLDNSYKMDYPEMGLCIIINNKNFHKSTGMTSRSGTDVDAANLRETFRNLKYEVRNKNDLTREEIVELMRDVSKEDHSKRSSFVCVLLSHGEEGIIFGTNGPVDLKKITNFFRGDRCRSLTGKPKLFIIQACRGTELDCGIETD
T2 sequence (P42574 176-277 limits assumed): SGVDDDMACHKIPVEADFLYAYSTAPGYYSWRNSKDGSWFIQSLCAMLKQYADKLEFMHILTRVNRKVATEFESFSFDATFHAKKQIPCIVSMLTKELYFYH

TX = target: T3, TX (Homo sapiens, UniProt P49662); assay: Inhibition of ICE homologs: TX; assay type: biochemical; details: for Ki: ICE substrate, conditions identical to ICE (Table 1); for kinact (TX): second-order rate constant for inactivation, irreversible inhibitors (Table 2)
T3 construct: made in house; host or cells: Spodoptera frugiperda (Sf9) insect cells, recombinant baculovirus (pVL1393/TX)
T3 sequence (P49662 81-270 limits assumed): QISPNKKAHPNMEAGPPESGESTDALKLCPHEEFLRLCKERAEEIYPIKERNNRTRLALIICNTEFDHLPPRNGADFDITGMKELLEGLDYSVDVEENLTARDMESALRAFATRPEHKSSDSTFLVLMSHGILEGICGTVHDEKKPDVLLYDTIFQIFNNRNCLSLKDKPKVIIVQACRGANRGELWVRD
T3 sequence (P49662 290-377 limits assumed): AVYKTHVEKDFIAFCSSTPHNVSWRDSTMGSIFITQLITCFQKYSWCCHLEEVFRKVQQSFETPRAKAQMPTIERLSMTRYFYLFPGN
Description: Expression of TX in insect cells using a baculovirus expression system. We have subcloned Tx cDNA (Faucheu et al., supra 1995) into a modified pVL1393 transfer vector, co-transfected the resultant plasmid (pVL1393/TX) into insect cells with viral DNA and identified the recombinant baculovirus. After the generation of high titer recombinant virus stock, the medium was examined for TX activity using the visible ICE assay. […] ICE was used as a standard in the assay.
as §1, §2

U937 cells = assay: Fas-induced apoptosis in U937 cells; details: Homo sapiens; for inhibition at 20 µM: U-937, read-out: Inhibition of apoptosis

- Fluorescent Assay kinact (ICE; Table 18): 420000 m^−1 s^−1
Compound: CS(=O)(=O)N[C@H]1CCC(=O)N2CCC[C@@H](C(=O)N[C@@H](CC(=O)O)C(=O)COC(=O)c3sccc3Cl)N2C1=O [505 e, [3S(1S,9S)]5-(3-Chlorothien-2-oyloxy)-3-(6,10-dioxo-9-methanesulphonylamino-1,2,3,4,7,8,9,10-octahydro-6H-pyridazino[1,2-a][1,2]diazepine-1-carboxamido)-4-oxopentanoic acid]

- Ki (CPP32): > 1000 nM
- melting point: 76 to 80 °C
- Ki (TX): 57 ± 13 nM
Compound: O=C(O)C[C@H](NC(=O)[C@@H]1CCCN2C(=O)CC[C@H](NC(=O)CCc3ccccc3)C(=O)N12)C(=O)CSCc1ccccc1Cl [Compound 125b, [3S(1S,9S)]-3-(6,10-dioxo-1,2,3,4,7,8,9,10-octahydro)-9-(3-phenylpropionyl-amino)-6H-pyridazine[1,2-a][1,2]diazepine-1-carboxamido-5-(2-chlorophenyl-methylthio)-4-oxopentanoic acid]

- Ki (CPP32): > 1000 nM
- Ki (TX): 55 ± 9 nM
Compound: COc1cccc2nc(C(=O)[C@H](CC(=O)O)NC(=O)[C@@H]3CCCN4C(=O)CC[C@H](NC(=O)CCc5ccccc5)C(=O)N34)oc12 [Compound 135a]

- Fluorescent Assay kinact (ICE; Table 6): 5.4 × 10^5 m^−1 s^−1
Compound: O=C(O)C[C@H](NC(=O)[C@@H]1CCCN2C(=O)CC[C@H](NC(=O)CCc3ccccc3)C(=O)N12)C(=O)COC(=O)c1c(Cl)cccc1Cl [Compound 136]
- inhibition at 20 µM (U937 cells): > 75%

- Ki (CPP32): > 1000 nM
- Ki (TX): 40 ± 7 nM
Compound: O=C(O)C[C@H](NC(=O)[C@@H]1CCCN2C(=O)CC[C@H](NC(=O)CCc3ccccc3)C(=O)N12)C(=O)c1ncc(-c2c(Cl)cccc2Cl)o1 [Compound 137]

Compound: CS(=O)(=O)N[C@H]1CCC(=O)N2CCC[C@@H](C(=O)N[C@@H](CC(=O)O)C(=O)COC(=O)c3c(Cl)cccc3Cl)N2C1=O [Compound 138]
- kinact (CPP32) (CPP32): 550,000 M^−1 s^−1
- inhibition at 20 µM (U937 cells): > 75%
- Fluorescent Assay kinact (ICE; Table 6): 1.2 × 10^5 m^−1 s^−1
- kinact (ICE) (ICE): 120,000 M^−1 s^−1
- kinact (TX) (TX): 150,000 M^−1 s^−1

Compound: O=C(O)C[C@H](NC(=O)[C@@H]1CCCN2C(=O)CC[C@H](NC(=O)OCc3ccccc3)C(=O)N12)C(=O)COC(=O)c1c(Cl)cccc1Cl [Compound 217d, [3S(1S,9S)]3-(9-Benzyloxycarbonylamino-6,10-dioxo-1,2,3,4,7,8,9,10-octahydro-6H-pyridazino[1,2-a][1,2]-diazepine-1-carboxamido)-5-(2,6-dichlorobenzoyloxy)-4-oxopentanoic acid]
- kinact (CPP32) (CPP32): 150,000 M^−1 s^−1
- Fluorescent Assay kinact (ICE; Table 6): 4.7 × 10^5 m^−1 s^−1
- kinact (ICE) (ICE): 475,000 M^−1 s^−1
- melting point: 85 to 110 °C
- kinact (TX) (TX): 250,000 M^−1 s^−1

Compound: O=C(O)C[C@H](NC(=O)[C@@H]1CCCN2C(=O)CC[C@H](NC(=O)c3ccccc3)C(=O)N12)C(=O)COC(=O)c1c(Cl)cccc1Cl [Compound 217e, [3S(1S,9S)]3-(9-Benzoylamino-6,10-dioxo-1,2,3,4,7,8,9,10-octahydro-6H-pyridazino[1,2-a][1,2]-diazepine-1-carboxamido)-5-(2,6-dichlorobenzoyloxy)-4-oxopentanoic acid]
- IC50 (U937 cells; U-937, 24 h, read-out: IC50, anti-Fas-induced apoptosis): 800 nM

- Fluorescent Assay kinact (ICE; Table 6): 4 × 10^5 m^−1 s^−1
Compound: O=C(O)C[C@H](NC(=O)[C@@H]1CCCN2C(=O)CC[C@H](NC(=O)c3ccccc3)C(=O)N12)C(=O)CSc1nnnn1-c1ccccc1 [Compound 280, [3S(1S,9S)]3-(9-Benzoylamino-6,10-dioxo-1,2,3,4,7,8,9,10-octahydro-6H-pyridazino[1,2-a][1,2]diazepine-1-carboxamido)-4-oxo-5(1-phenyl-1H-tetrazole-5-thio)pentanoic acid]

- Fluorescent Assay kinact (ICE; Table 6): 1 × 10^5 m^−1 s^−1
Compound: O=C(O)C[C@H](NC(=O)[C@@H]1CCCN2C(=O)CC[C@H](NC(=O)c3ccccc3)C(=O)N12)C(=O)COc1cccnc1 [Compound 283, [3S(1S,9S)]3-[9-Benzoylamino-6,10-dioxo-1,2,3,4,7,8,9,10-octahydro-6H-pyridazino[1,2-a][1,2]diazepine-1-carboxamido]-4-oxo-5-(3-pyridyloxy)pentanoic acid]

- Fluorescent Assay kinact (ICE; Table 6): 3.5 × 10^5 m^−1 s^−1
Compound: COC(=O)N[C@H]1CCC(=O)N2CCC[C@@H](C(=O)N[C@@H](CC(=O)O)C(=O)COC(=O)c3c(Cl)cccc3Cl)N2C1=O [Compound 284, [3S(1S,9S)]5-(2,6-Dichlorobenzoyloxy)-3-[6,10-dioxo-9-(methoxycarbonyl)amino-1,2,3,4,7,8,9,10-octahydro-6H-pyridazino[1,2-a][1,2]diazepine-1-carboxamido]-4-oxopentanoic acid]

- Fluorescent Assay kinact (ICE; Table 6): 4.3 × 10^5 m^−1 s^−1
- melting point: 110 °C (dec.)
Compound: COC(=O)N[C@H]1CCC(=O)N2CCC[C@@H](C(=O)N[C@@H](CC(=O)O)C(=O)COC(=O)c3c(C)cccc3C)N2C1=O [Compound 285, [3S(1S,9S)]5-(2,6-Dimethylbenzoyloxy)-3-[6,10-dioxo-9-(methoxycarbonyl)amino-1,2,3,4,7,8,9,10-octahydro-6H-pyridazino[1,2-a][1,2]diazepine-1-carboxamido]-4-oxopentanoic acid]

- Fluorescent Assay kinact (ICE; Table 18): 370000 m^−1 s^−1
Compound: CS(=O)(=O)N[C@H]1CCC(=O)N2CCC[C@@H](C(=O)N[C@@H](CC(=O)O)C(=O)COC(=O)c3cccc4ccccc34)N2C1=O [Compound 286, [3S(1S,9S)]3-(6,10-Dioxo-9-methanesulphonylamino-1,2,3,4,7,8,9,10-octahydro-6H-pyridazino[1,2-a][1,2]diazepine-1-carboxamido)-5-(1-naphthoyloxy)-4-oxopentanoic acid]

- Fluorescent Assay kinact (ICE; Table 18): 190000 m^−1 s^−1
Compound: [3S(1S,9S)]3-[(6,10-Dioxo-9-(methanesulphonylamino)-1,2,3,4,7,8,9,10-octahydro-6H-pyridazino[1,2-a][1,2]diazepine-1-carboxamido]-5-(5-methyl-3-phenylisoxazoyloxy)-4-oxopentanoic acid [505 b]
